US6951881B2, “(1-substituted-indol-3-yl) alkylidenehydrazinecarboximidamide derivatives as 5-hydroxytryptamine-6 ligands” (Wyeth, priority 2002, dated 2005)
Like-named read-outs stand apart in the source and are kept apart here.

Biological target: T1, human cloned 5-HT6 receptors (Homo sapiens, UniProt P50406)
T1 construct: expressed in transfected cells; host or cells: HeLa cells
Assay type: binding
Settings: for inhibition at 0.01 µM: test compound dose 10 nM; for Ki: [3H]-LSD 3.0 nM, Hela cell membranes, read-out: 5-HT6 Binding Ki; for inhibition at 1 µM / % Inhibition: test compound dose 1000 nM

[1] = test compound dose 100 nM, displacement of [3H]-LSD, read-out: % Inhibition

T1 sequence (P50406 whole entry): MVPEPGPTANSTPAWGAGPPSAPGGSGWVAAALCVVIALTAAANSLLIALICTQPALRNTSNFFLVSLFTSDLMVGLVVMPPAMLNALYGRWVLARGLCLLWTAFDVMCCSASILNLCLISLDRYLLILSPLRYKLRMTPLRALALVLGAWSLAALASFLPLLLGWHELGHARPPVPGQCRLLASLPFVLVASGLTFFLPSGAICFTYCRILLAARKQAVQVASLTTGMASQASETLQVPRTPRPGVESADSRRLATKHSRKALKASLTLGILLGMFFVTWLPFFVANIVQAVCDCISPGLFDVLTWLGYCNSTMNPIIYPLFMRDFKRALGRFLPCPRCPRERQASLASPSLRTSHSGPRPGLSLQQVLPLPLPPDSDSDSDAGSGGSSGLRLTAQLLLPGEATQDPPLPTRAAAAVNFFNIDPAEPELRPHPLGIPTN

Compound `N=C(N)NN=C1CCCc2[nH]c3ccccc3c21` [Example 161, 2-(1,2,3,9-tetrahydro-4H-carbazol-4-ylidene)hydrazinecarboximidamide] has an inhibition at 0.01 µM (displacement of [3H]-LSD) of 39.5%.

`N=C(N)NN=Cc1c(-c2ccc(Cl)cc2)[nH]c2ccccc12` [Example 44, 2-[2-(4-chlorophenyl)-1H-indol-3-ylmethylene]hydrazinecarboximidamide] gave a Ki of 18 nM.

With `CC(C)CC(=NNC(=N)N)c1c(-c2ccc(Cl)cc2)[nH]c2ccccc12` [Example 62, 2-{1-[2-(4-chloro-phenyl)-1H-indol-3-yl]-3-methyl-butylidene}hydrazinecarboximidamide] the inhibition at 1 µM (displacement of [3H]-LSD) was 78.2%.

`CC(=NNC(=N)N)c1cn(C)c2ccc(NS(=O)(=O)c3ccccc3Br)cc12` [Example 25] showed a Ki of 1 nM and an inhibition at 1 µM (displacement of [3H]-LSD) of 99%.

In the case of `Cn1c(-c2ccccc2)c(C=NNC(=N)N)c2ccccc21` [Example 89, 2-[(1-methyl-2-phenyl-1H-indol-3-yl)-methylene]hydrazinecarboximidamide], the inhibition at 1 µM (displacement of [3H]-LSD) is reported as 70.6%.

In the case of `CN(N=C1CC(c2ccccc2)Cc2[nH]c3ccc(F)cc3c21)C1=NCCN1` (stereo not drawn) [Example 180, 6-fluoro-2-phenyl-1,2,3,9-tetrahydro-4H-carbazol-4-one 4,5-dihydro-1H-imidazol-2-yl(methyl)-hydrazone], the inhibition at 0.1 µM [1] is reported as 11.5%.

Compound `N=C(N)NN=C(c1c(-c2ccc(Cl)cc2)[nH]c2ccccc12)C1CCCCC1` [Example 55, 2-{[2-(4-chloro-phenyl)-1H-indol-3-yl]-cyclohexyl-methylene}hydrazinecarboximidamide] has an inhibition at 1 µM (displacement of [3H]-LSD) of 28.5%.

`N=C(NCc1ccccc1)NN=Cc1c(-c2ccc(Cl)cc2)[nH]c2ccccc12` [Example 117, 2-{[2-(4-chlorophenyl)-1H-indol-3-yl]methylidene}-N-benzyl-1hydrazinecarboximidamide] was tested, and the inhibition at 1 µM (displacement of [3H]-LSD) was 69%.

In the case of `N=C(N)NN=C(c1c(-c2ccccc2)n(-c2ccccc2)c2ccccc12)C1CCCCC1` [Example 80, 2-[cyclohexyl-(1,2-diphenyl-1H-indol-3-yl)-methylene]hydrazinecarboximidamide], the inhibition at 1 µM (displacement of [3H]-LSD) is reported as 8.7%.

`Cc1ccc2[nH]c3c(c2c1)C(=NN(C)C1=NCCN1)CC(C)(C)C3` [Example 174, 2,2,6-trimethyl-1,2,3,9-tetrahydro-4H-carbazol-4-one 4,5-dihydro-1H-imidazol-2-yl(methyl)-hydrazone] gave an inhibition at 0.1 µM [1] of 25.5%.

Compound `CC(=NNC(=N)N)c1cn(C)c2ccc(NS(=O)(=O)c3ccc(N)cc3)cc12` [Example 10] has a Ki of 4 nM and an inhibition at 1 µM (displacement of [3H]-LSD) of 98.7%.

`N=C(N)N/N=C/c1c(-c2ccccc2)[nH]c2ccccc12` [Example 42, 2-(2-Phenyl-1H-indol-3-ylmethylene)hydrazinecarboximidamide] was tested, and the inhibition at 1 µM (displacement of [3H]-LSD) was 82.1%.

`CC(=NNC(=N)N)c1c(-c2ccccc2)n(C)c2ccccc12` [Example 86, 2-[1-(1-methyl-2-phenyl-1H-indol-3-yl)-ethylidene]hydrazinecarboximidamide] showed a Ki of 19 nM and an inhibition at 1 µM (displacement of [3H]-LSD) of 99.4%.

For `N=C(N)NN=Cc1c(-c2ccc(Cl)cc2)n(Cc2ccccc2Cl)c2ccccc12` [Example 96, 2-{[1-(2-chloro-benzyl)-2-(4-chloro-phenyl)-1H-indol-3-yl]-methylene}hydrazinecarboximidamide], the inhibition at 1 µM (displacement of [3H]-LSD) was 15.6%.

`Fc1ccc2[nH]c3c(c2c1)C(=NNC1=NCCN1)CCC3` [Example 157, 6-fluoro-1,2,3,9-tetrahydro-4H-carbazol-4-one 4,5-dihydro-1H-imidazol-2-ylhydrazone] gave an inhibition at 1 µM (displacement of [3H]-LSD) of 96.3%.

Work on `CC1(C)CC(=NNC(=N)N)c2c([nH]c3ccc(OC(F)(F)F)cc23)C1` [Example 168, 2-[2,2-dimethyl-6-(trifluoromethoxy)-1,2,3,9-tetrahydro-4H-carbazol-4-ylidene]hydrazinecarboximidamide] yielded an inhibition at 0.1 µM [1] of 26%.

`CC(C)C(=NNC(=N)N)c1c(-c2ccc(Cl)cc2)[nH]c2ccccc12` [Example 57, 2-{[2-(4-chloro-phenyl)-1H-indol-3-yl]-2-methyl-propylidene}hydrazinecarboximidamide] was tested, and the “% Inhibition” value (displacement of [3H]-LSD) was 74.6%.

For `N=C(N)NN=Cc1c(-c2ccccc2)n(-c2ccccc2)c2ccccc12` [Example 91, 2-[(1,2-diphenyl-1H-indol-3-yl)-methylene]hydrazinecarboximidamide], the inhibition at 1 µM (displacement of [3H]-LSD) was 24%.

Compound `CC(C)c1ccc2[nH]c3c(c2c1)C(=NN(C)C1=NCCN1)CC(C)(C)C3` [Example 177, 6-isopropyl-2,2-dimethyl-1,2,3,9-tetrahydro-4H-carbazol-4-one 4,5-dihydro-1H-imidazol-2-yl(methyl)hydrazone] has an inhibition at 0.1 µM [1] of 22.9%.

`CN(N=C(Cc1ccc(Cl)cc1)c1c(-c2ccc(Cl)cc2)[nH]c2ccccc12)C1=NCCN1` [Example 73, N′-{2-(4-chloro-phenyl)-1-[2-(4-chloro-phenyl)-1H-indol-3-yl]-ethylidene}-N-(4,5-dihydro-1H-imidazol-2-yl)-N-methylhydrazine] was tested, and the inhibition at 1 µM (displacement of [3H]-LSD) was 37.5%.

Compound `CC(=NNC(=N)N)c1c(-c2ccc(F)c(Cl)c2)[nH]c2ccccc12` [Example 65, 2-{1-[2-(3-chloro-4-fluoro-phenyl)-1H-indol-3-yl]-ethylidene}hydrazinecarboximidamide] has an inhibition at 1 µM (displacement of [3H]-LSD) of 87.2%.

In the case of `CN(N=Cc1c(-c2ccc(Cl)cc2)[nH]c2ccccc12)C1=NCCN1` [Example 46, N′-[2-(4-chlorophenyl)-1H-indol-3-ylmethylene]-N-(4,5-dihydro-1H-imidazol-2-yl)-N-methylhydrazine], the Ki is reported as 10 nM and the inhibition at 1 µM (displacement of [3H]-LSD) is reported as 96.5%.

`C/C(=N\NC(=N)N)c1c(-c2ccc(Cl)cc2Cl)[nH]c2ccc(Cl)cc12` [Example 127, 2-{[5-Chloro-2-(2,4-dichlorophenyl)-1H-indol-3-yl]ethylidene}hydrazinecarboximidamide] showed an inhibition at 0.1 µM of 50.6%.

`Cc1ccc2[nH]c3c(c2c1)C(=NN(C)C1=NCCN1)CCC3` [Example 176, 6-methyl-1,2,3,9-tetrahydro-4H-carbazol-4-one 4,5-dihydro-1H-imidazol-2-yl(methyl)hydrazone] showed an inhibition at 0.1 µM [1] of 24.2%.

`N=C(N)NN=C1CCCc2[nH]c3ccc(Br)cc3c21` [Example 159, 2-(6-bromo-1,2,3,9-tetrahydro-4H-carbazol-4-ylidene)hydrazinecarboximidamide] showed an inhibition at 0.01 µM (displacement of [3H]-LSD) of 61.1%.

`CN(N=C1CCCc2[nH]c3ccc(Cl)cc3c21)C1=NCCN1` [Example 154, 6-chloro-1,2,3,9-tetrahydro-4H-carbazol-4-one 4,5-dihydro-1H-imidazol-2-yl(methyl)hydrazone] was tested, and the inhibition at 1 µM (displacement of [3H]-LSD) was 87.1%.

For `CN(N=C(c1ccc(Cl)cc1)c1c(-c2ccccc2)[nH]c2ccccc12)C1=NCCN1` [Example 66, N′-[(4-chlorophenyl)-(2-phenyl-1H-indol-3-yl)-methylene]-N-(4,5,-dihydro-1H-imidazol-2-yl)-N-methylhydrazine], the “% Inhibition” value (displacement of [3H]-LSD) was 18.1%.

Compound `CC(C)c1ccc2[nH]c3c(c2c1)C(=NN(C)C1=NCCN1)CCC3` [Example 179, 6-isopropyl-1,2,3,9-tetrahydro-4H-carbazol-4-one 4,5-dihydro-1H-imidazol-2-yl(methyl)-hydrazone] has an inhibition at 0.1 µM [1] of 5.6%.

In the case of `CC1(C)CC(=NNC(=N)N)c2c([nH]c3ccc(Cl)cc23)C1` [Example 171, 2-(6-chloro-2,2-dimethyl-1,2,3,9-tetrahydro-4H-carbazol-4-ylidene)hydrazinecarboximidamide], the inhibition at 0.1 µM [1] is reported as 30.7%.
